pIC50: −log10 of the molar value.

The target of one test is T1, PD-1/PD-L1 interaction (Homo sapiens, UniProt Q9NZQ7).
T1 construct: purchased BPS Bioscience #71104 (PD-L1); #71109 (biotinylated PD-1)
T1 sequence (Q9NZQ7 19-239 limits assumed): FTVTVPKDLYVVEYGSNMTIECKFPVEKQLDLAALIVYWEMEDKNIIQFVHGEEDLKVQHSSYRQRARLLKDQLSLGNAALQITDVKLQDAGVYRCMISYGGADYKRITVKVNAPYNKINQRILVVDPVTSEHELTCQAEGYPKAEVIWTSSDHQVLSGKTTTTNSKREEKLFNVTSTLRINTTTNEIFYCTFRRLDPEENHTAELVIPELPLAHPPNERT
In words: PD-1/PD-L1 competitive ELISA (Inhibitor Screening Assay Kit). To be noted: mean of three independent replicates, read-out: IC50, PD-1/PD-L1 blocking effect. Type of test: binding. The protocol:
Competitive ELSIA was performed using a PD–1/PD-L1 or CTLA-4/CD80 Inhibitor Screening Assay Kit, according to the supplier’s instructions. An aliquot of 1 μg/mL recombinant human PD-L1 (BPS Bioscience, #71104) or CTLA-4 (BPS Bioscience, #71149) were coated onto a 96-well plate overnight. Plates were washed with phosphate-buffered saline (PBS) containing 0.1% Tween (PBS-T), blocked for 1 h at room temperature with PBS-T containing 2% (w/v) bovine serum albumen, and washed again. After washing, vehicle or test samples were added, and the reaction continued for 1 h. As a positive control, PD-L1 inhibitor C1 or anti-CTLA-4 neutralizing antibody were used. Biotinylated hPD–1 (BPS Bioscience, #71109) or biotinylated hCD80 (BPS Bioscience, #71114) was added to each well, and plates were incubated for 2 h at room temperature. After three washes with PBS-T, diluted streptavidin-horseradish peroxidase (HRP) was added to each well, and plates were reacted for 1 h while shaking at low speed. After the reaction, plates were washed three times with PBS-T, and HRP substrates A and B were added. Relative chemiluminescence was measured on a SpectraMax L Luminometer (Molecular Devices, San Jose, California, USA) and expressed as the relative binding activity. The results were normalized to the relative percentage of the vehicle control group. Half-maximal inhibitory concentration (IC50) was calculated using Prism “log[inhibitor] vs. normalized response” equation. All results are presented as the mean of three independent biological replicates. * p < 0.05, ** p < 0.01, *** p < 0.001, compared with the vehicle control group.
Turning to `O=C1C[C@@H](c2ccc(O)c(O)c2)Oc2cc(O)cc(O)c21` [Compound 7, eriodictyol], the pIC50 is 7.40.

As to `O=c1c(O)c(-c2ccc(O)c(O)c2)oc2cc(O)ccc12` [Compound 9, fisetin], the pIC50 is 7.40.

Regarding `O=C1C[C@@H](c2ccc(O)cc2)Oc2cc(O)ccc21` [Compound 13, liquiritigenin], the pIC50 was 4.93.

Turning to `O=c1c(O)c(-c2ccc(O)c(O)c2)oc2cc(O)cc(O)c12` [Compound 18, quercetin], the pIC50 was 5.24.

The target of another test is T2, CTLA-4/CD80 interaction (Homo sapiens, UniProt P16410).
T2 construct: purchased BPS Bioscience #71149 (CTLA-4); #71114 (biotinylated CD80)
T2 sequence (P16410 37-162 limits assumed): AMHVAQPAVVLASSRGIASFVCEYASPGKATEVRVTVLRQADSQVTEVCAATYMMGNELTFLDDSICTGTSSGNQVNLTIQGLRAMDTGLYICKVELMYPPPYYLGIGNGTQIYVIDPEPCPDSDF
In words: CTLA-4/CD80 competitive ELISA (Inhibitor Screening Assay Kit). Format: binding. The settings on record: mean of three independent replicates, read-out: IC50, CTLA-4/CD80 blocking effect. The protocol: Competitive ELSIA was performed using a PD–1/PD-L1 or CTLA-4/CD80 Inhibitor Screening Assay Kit, according to the supplier’s instructions. An aliquot of 1 μg/mL recombinant human PD-L1 (BPS Bioscience, #71104) or CTLA-4 (BPS Bioscience, #71149) were coated onto a 96-well plate overnight. Plates were washed with phosphate-buffered saline (PBS) containing 0.1% Tween (PBS-T), blocked for 1 h at room temperature with PBS-T containing 2% (w/v) bovine serum albumen, and washed again. After washing, vehicle or test samples were added, and the reaction continued for 1 h. As a positive control, PD-L1 inhibitor C1 or anti-CTLA-4 neutralizing antibody were used. Biotinylated hPD–1 (BPS Bioscience, #71109) or biotinylated hCD80 (BPS Bioscience, #71114) was added to each well, and plates were incubated for 2 h at room temperature. After three washes with PBS-T, diluted streptavidin-horseradish peroxidase (HRP) was added to each well, and plates were reacted for 1 h while shaking at low speed. After the reaction, plates were washed three times with PBS-T, and HRP substrates A and B were added. Relative chemiluminescence was measured on a SpectraMax L Luminometer (Molecular Devices, San Jose, California, USA) and expressed as the relative binding activity. The results were normalized to the relative percentage of the vehicle control group. Half-maximal inhibitory concentration (IC50) was calculated using Prism “log[inhibitor] vs. normalized response” equation.
Background: An ELISA detects its analyte on a solid surface through an enzyme-linked reagent.
With `O=C(O)c1ccc(O)c(O)c1` [Compound 2, protocatechuic acid], the pIC50 is 5.35.

As to `O=C1c2c(O)cc(O)cc2OC(c2ccc(O)c(O)c2)C1O` (stereo not shown) [Compound 5, taxifolin], the pIC50 is 4.45.

Consider `O=C(O)/C=C/c1ccc(O)c(O)c1` [Compound 19, caffeic acid], for which the pIC50 is 5.00.

(Values after article PMC6891444, “Immune Checkpoint PD-1/PD-L1 CTLA-4/CD80 are Blocked by Rhus verniciflua Stokes and its Active Compounds” (Molecules, 2019).)
